Results: patent publication US10300051B2, “Cyclopropylamines as LSD1 inhibitors” (priority 2014, dated 2019)
pIC50: −log10 of the molar value. Where two headings read alike, the source gives them in different places.

Biological target: LSD-1 enzyme (Homo sapiens (Human), UniProt O60341)
Type: biochemical
Experimental: Example A: LSD1 Histone Demethylase Biochemical Assay
LANCE LSD1/KDM1A demethylase assay—10 μL of 1 nM LSD-1 enzyme (ENZO BML-SE544-0050) in the assay buffer (50 mM Tris, pH 7.5, 0.01% Tween-20, 25 mM NaCl, 5 mM DTT) were preincubated for 1 hour at 25° C. with 0.8 μL compound/DMSO dotted in black 384 well polystyrene plates. […] Reactions were stopped by addition of 10 μL 1× LANCE Detection Buffer (PerkinElmer CR97-100) supplemented with 1.5 nM Eu-anti-unmodified H3K4 Antibody (PerkinElmer TRF0404), and 225 nM LANCE Ultra Streptavidin (PerkinElmer TRF102) along with 0.9 mM Tranylcypromine-HCl (Millipore 616431). After stopping the reactions plates were incubated for 30 minutes and read on a PHERAstar FS plate reader (BMG Labtech).

[1] = 1 nM LSD-1 enzyme, 1 hour preincubation at 25° C., Biotin-labeled Histone H3 peptide substrate

N#CCc1ccc(CC2(CN[C@@H]3C[C@H]3c3ccccc3)CCN(CCC(=O)O)CC2)cc1 [Example 25, 3-[4-[4-(cyanomethyl)benzyl]-4-({[(1R,2S)-2-phenylcyclopropyl]amino}methyl)piperidin-1-yl]propanoic Acid] was tested, and the pIC50 [1] was greater than 7.00.

O=C(O)c1cccc(CC2(CN[C@@H]3C[C@H]3c3ccccc3)CCN(CC3CC3)CC2)c1 [Example 30, 3-{[1-(cyclopropylmethyl)-4-({[(1R,2S)-2-phenylcyclopropyl]amino}methyl)piperidin-4-yl]methyl}benzoic Acid] gave a pIC50 [1] greater than 7.00.

With O=C(O)CCN1CCC(CN[C@@H]2C[C@H]2c2ccccc2)(COC2CCCCC2)CC1 [Example 53, 3-[4-[(cyclohexyloxy)methyl]-4-({[(1R,2S)-2-phenylcyclopropyl]amino}methyl)piperidin-1-yl]propanoic Acid] the pIC50 [1] was greater than 7.00.

Work on O=C(O)CCN1CCC(CN[C@@H]2C[C@H]2c2ccccc2)(COc2ncc(F)cn2)CC1 [Example 46, 3-[4-{[(5-fluoropyrimidin-2-yl)oxy]methyl}-4-({[(1R,2S)-2-phenylcyclopropyl]amino}methyl)piperidin-1-yl]propanoic Acid] yielded a pIC50 [1] greater than 7.00.

Work on O=C(O)CCN1CCC(CN[C@@H]2C[C@H]2c2ccccc2)(Cc2ccccc2F)CC1 [Example 16, 3-[4-(2-fluorobenzyl)-4-({[(1R,2S)-2-phenylcyclopropyl]amino}methyl)piperidin-1-yl]propanoic Acid] yielded a pIC50 [1] greater than 7.00.

Work on COCC1(CN[C@@H]2C[C@H]2c2ccccc2)CCN(CCC(=O)O)CC1 [Example 22, 3-[4-(methoxymethyl)-4-({[(1R,2S)-2-phenylcyclopropyl]amino}methyl)piperidin-1-yl]propanoic Acid] yielded a pIC50 [1] greater than 7.00.

Work on COc1ccc(CC2(CN[C@@H]3C[C@H]3c3ccccc3)CCN(CCC(=O)O)CC2)cc1 [Example 55, 3-[4-(4-methoxybenzyl)-4-({[(1R,2S)-2-phenylcyclopropyl]amino}methyl)piperidin-1-yl]propanoic Acid] yielded a pIC50 [1] greater than 7.00.

Compound N#CCCN1CCC(CN[C@@H]2C[C@H]2c2ccccc2)(Cc2cccc(C(=O)O)c2)CC1 [Example 56, 3-{[1-(2-cyanoethyl)-4-({[(1R,2S)-2-phenylcyclopropyl]amino}methyl)piperidin-4-yl]methyl}benzoic Acid] has a pIC50 [1] greater than 7.00.

For N#Cc1ccccc1OCC1(CN[C@@H]2C[C@H]2c2ccccc2)CCN(CCC(=O)O)CC1 [Example 43, 3-[4-[(2-cyanophenoxy)methyl]-4-({[(1R,2S)-2-phenylcyclopropyl]amino}methyl)piperidin-1-yl]propanoic Acid], the pIC50 [1] was greater than 7.00.

In the case of COCC1(CN[C@@H]2C[C@H]2c2ccccc2)CCN(C(=O)CN2CCOCC2)CC1 [Example 61, (1R,2S)—N-{[4-(methoxymethyl)-1-(morpholin-4-ylacetyl)piperidin-4-yl]methyl}-2-phenylcyclopropanamine], the pIC50 [1] was greater than 7.00.

Compound N#CC1(c2ccc(CC3(CN[C@@H]4C[C@H]4c4ccccc4)CCN(CCC(=O)O)CC3)cc2)CC1 [Example 26, 3-[4-[4-(1-cyanocyclopropyl)benzyl]-4-({[(1R,2S)-2-phenylcyclopropyl]amino}methyl)piperidin-1-yl]propanoic Acid] has a pIC50 [1] greater than 7.00.

CN1CCC(CC#N)(CN[C@@H]2C[C@H]2c2ccccc2)CC1 (relative stereo) [Example 5, (1-Methyl-4-{[(trans-2-phenylcyclopropyl)amino]methyl}piperidin-4-yl)acetonitrile] showed a pIC50 [1] greater than 7.00.

For O=C(O)CCN1CCC(CN[C@@H]2C[C@H]2c2ccccc2)(Cc2cccc(F)c2F)CC1 [Example 19, 3-[4-(2,3-difluorobenzyl)-4-({[(1R,2S)-2-phenylcyclopropyl]amino}methyl)piperidin-1-yl]propanoic Acid], the pIC50 [1] was greater than 7.00.

O=C(O)CCN1CCC(CN[C@@H]2C[C@H]2c2ccccc2)(Cc2ccc(F)cc2F)CC1 [Example 18, 3-[4-(2,4-difluorobenzyl)-4-({[(1R,2S)-2-phenylcyclopropyl]amino}methyl)piperidin-1-yl]propanoic Acid] was tested, and the pIC50 [1] was greater than 7.00.

With CS(=O)(=O)N1CCC(CC#N)(CN[C@@H]2C[C@H]2c2ccccc2)CC1 (relative stereo) [Example 4, (1-(Methylsulfonyl)-4-{[(trans-2-phenylcyclopropyl)amino]methyl}piperidin-4-yl)acetonitrile] the pIC50 [1] was greater than 7.00.

N#CCC1(CN[C@@H]2C[C@H]2c2ccccc2)CCNCC1 (relative stereo) [Example 6, (4-{[(trans-2-Phenylcyclopropyl)amino]methyl}piperidin-4-yl)acetonitrile] gave a pIC50 [1] greater than 7.00.

With C[C@H](N)C(=O)N1CCC(CN[C@@H]2C[C@H]2c2ccccc2)(Cc2ccc(F)cc2)CC1 [Example 14, (1R,2S)—N-{[1-[(2S)-2-aminopropanoyl]-4-(4-fluorobenzyl)piperidin-4-yl]methyl}-2-phenylcyclopropanamine] the pIC50 [1] was greater than 7.00.

For O=C(O)CCN1CCC(CN[C@@H]2C[C@H]2c2ccccc2)(COCC2CCC2)CC1 [Example 52, 3-[4-[(cyclobutylmethoxy)methyl]-4-({[(1R,2S)-2-phenylcyclopropyl]amino}methyl)piperidin-1-yl]propanoic Acid], the pIC50 [1] was greater than 7.00.

Work on COc1cccc(CC2(CN[C@@H]3C[C@H]3c3ccccc3)CCN(CCC(=O)O)CC2)c1 [Example 59, 3-[4-(3-methoxybenzyl)-4-({[(1R,2S)-2-phenylcyclopropyl]amino}methyl)piperidin-1-yl]propanoic Acid] yielded a pIC50 [1] greater than 7.00.

CCN1CCC(CN[C@@H]2C[C@H]2c2ccccc2)(Cc2cccc(C(=O)O)c2)CC1 [Example 29, 3-{[1-ethyl-4-({[(1R,2S)-2-phenylcyclopropyl]amino}methyl)piperidin-4-yl]methyl}benzoic Acid] gave a pIC50 [1] greater than 7.00.

CN(C)CC(=O)N1CCC(CN[C@@H]2C[C@H]2c2ccccc2)(Cc2cccc(C#N)c2)CC1 [Example 57, 3-{[1-[(dimethylamino)acetyl]-4-({[(1R,2S)-2-phenylcyclopropyl]amino}methyl)piperidin-4-yl]methyl}benzonitrile] showed a pIC50 greater than 7.00.

With CCOCC1(CN[C@@H]2C[C@H]2c2ccccc2)CCN(CCC(=O)O)CC1 [Example 51, 3-[4-(ethoxymethyl)-4-({[(1R,2S)-2-phenylcyclopropyl]amino}methyl)piperidin-1-yl]propanoic Acid] the pIC50 [1] was greater than 7.00.

O=C(O)CCN1CCC(CN[C@@H]2C[C@H]2c2ccccc2)(COc2ccc(F)cc2)CC1 [Example 39, 3-[4-[(4-fluorophenoxy)methyl]-4-({[(1R,2S)-2-phenylcyclopropyl]amino}methyl)piperidin-1-yl]propanoic Acid] was tested, and the pIC50 [1] was greater than 7.00.

Fc1ccc(CC2(CN[C@H]3C[C@@H]3c3ccccc3)CCNCC2)cc1 [Example 12, (1S,2R)—N-{[4-(4-fluorobenzyl)piperidin-4-yl]methyl}-2-phenylcyclopropanamine] gave a pIC50 [1] greater than 7.00.

Compound O=C(O)CCN1CCC(CN[C@@H]2C[C@H]2c2ccccc2)(COc2cccc(F)c2)CC1 [Example 38, 3-[4-[(3-fluorophenoxy)methyl]-4-({[(1R,2S)-2-phenylcyclopropyl]amino}methyl)piperidin-1-yl]propanoic Acid] has a pIC50 [1] greater than 7.00.

COc1ccc(CC2(CN[C@@H]3C[C@H]3c3ccccc3)CCN(CCC(=O)O)CC2)cn1 [Example 50, 3-[4-[(6-methoxypyridin-3-yl)methyl]-4-({[(1R,2S)-2-phenylcyclopropyl]amino}methyl)piperidin-1-yl]propanoic Acid] showed a pIC50 [1] greater than 7.00.

Cn1cc(-c2cccc(CC3(CN[C@@H]4C[C@H]4c4ccccc4)CCN(CCC(=O)O)CC3)c2)cn1 [Example 27, 3-[4-[3-(1-methyl-1H-pyrazol-4-yl)benzyl]-4-({[(1R,2S)-2-phenylcyclopropyl]amino}methyl)piperidin-1-yl]propanoic Acid] gave a pIC50 [1] greater than 7.00.

With CN1CCC(CN[C@@H]2C[C@H]2c2ccccc2)(Cc2cccc(C(=O)O)c2)CC1 [Example 28, 3-{[1-methyl-4-({[(1R,2S)-2-phenylcyclopropyl]amino}methyl)piperidin-4-yl]methyl}benzoic Acid] the pIC50 [1] was greater than 7.00.

O=C(O)CCN1CCC(CN[C@@H]2C[C@H]2c2ccccc2)(Cc2cccc(F)c2)CC1 [Example 17, 3-[4-(3-fluorobenzyl)-4-({[(1R,2S)-2-phenylcyclopropyl]amino}methyl)piperidin-1-yl]propanoic Acid] gave a pIC50 [1] greater than 7.00.

Compound N#Cc1ccc(OCC2(CN[C@@H]3C[C@H]3c3ccccc3)CCN(CCC(=O)O)CC2)cc1 [Example 44, 3-[4-[(4-cyanophenoxy)methyl]-4-({[(1R,2S)-2-phenylcyclopropyl]amino}methyl)piperidin-1-yl]propanoic Acid] has a pIC50 [1] greater than 7.00.

Compound N#Cc1ccc(CC2(CN[C@@H]3C[C@H]3c3ccccc3)CCN(CCC(=O)O)CC2)c(F)c1 [Example 42, 3-[4-(4-cyano-2-fluorobenzyl)-4-({[(1R,2S)-2-phenylcyclopropyl]amino}methyl)piperidin-1-yl]propanoic Acid] has a pIC50 [1] greater than 7.00.

CC(C)N1CCC(CN[C@@H]2C[C@H]2c2ccccc2)(Cc2cccc(C(=O)O)c2)CC1 [Example 34, 3-{[1-isopropyl-4-({[(1R,2S)-2-phenylcyclopropyl]amino}methyl)piperidin-4-yl]methyl}benzoic Acid] was tested, and the pIC50 [1] was greater than 7.00.

CCOc1cccc(CC2(CN[C@@H]3C[C@H]3c3ccccc3)CCN(CCC(=O)O)CC2)c1 [Example 60, 3-[4-(3-ethoxybenzyl)-4-({[(1R,2S)-2-phenylcyclopropyl]amino}methyl)piperidin-1-yl]propanoic Acid] gave a pIC50 [1] greater than 7.00.
